Results reported in patent publication US12002595B2, “Separation of metal ions by liquid-liquid extraction” (priority 2016, dated 2024).
In brackets after ≈: the same amount, converted by molar mass. Like-named read-outs stand apart in the source and are kept apart here.

Tests used:
[1] = Stability constant (log βML) of ligand-metal complexes; assay type: binding
From the text: Thus far, no stability constant has been published for the actinium (Ac^3+) complex of 3,4,3-LI(1,2-HOPO). Based on the ionic radius of Ac^3+ (1.22 Å; See, D. Lundberg, I. Persson, The size of actinoid(III) ions—structural analysis vs. common misinterpretations, Coord. Chem. Rev. 318 (2016) 131-134. doi:10.1016/j.ccr.2016.04.003) and stability constants determined for other actinide and lanthanide ions, the stability of the Ac^3+ complex is expected to be very low, with a log β[AcL]- value of about 12 (FIG. 22). Stability of constant of 3,4,3-LI(1,2-HOPO) complexes with trivalent ions as a function of the ionic radius of the metal is shown in FIG. 22. […] Ionic radius values taken from Lundberg et al. for nona-coordinated metal ions. The Ac^3+ data point is an estimate. See, Lundberg, I. Persson, The size of actinoid(III) ions—structural analysis vs. common misinterpretations, Coord. Chem. Rev. 318 (2016) 131-134. doi:10.1016/j.ccr.2016.04.003; D. Lundberg, I. Persson, L. Eriksson, P. D'Angelo, S. De Panfilis, Structural Study of the N,N′-Dimethylpropyleneurea Solvated Lanthanoid(III) Ions in Solution and Solid State with an Analysis of the Ionic Radii of Lanthanoid(III) Ions, Inorg. Chem. 49 (2010) 4420-4432. doi:10.1021/ic100034q.

[2] = Aqueous solubility of the ligand; assay type: physicochemical; settings: water; room temperature
[3] = Persistence of the metal complex versus acidity; assay type: binding; settings: Zr^4+
[4] = Persistence of the metal complex versus acidity; assay type: binding; settings: Ti^4+
[5] = Persistence of the metal complex versus acidity; assay type: binding; settings: Sn^4+
[6] = Extraction by HDEHP at constant pH with 3,4,3-LI(1,2-HOPO) as hold-back reagent; settings: 1 mM ligand; for % Extraction: 0.1 M HNO3/1.9 M NaNO3, extraction of ^242Plutonium(IV); for SF Am^3+/Pu^4+: to be seen as lower limit
Procedure: In FIG. 26, aqueous phase: [ligand]=1 mM, buffer 0.1 M HNO3/1.9 M NaNO3. Organic phase: HDEHP diluted in kerosene. [HDEHP]=0.05, 0.10, 0.25, 0.50, 1.0, or 2.0 M. T=25° C. Volume organic phase/Volume aqueous phase=1. Initial metal concentrations: [Pu-242]=10 μM, [Am-243]=0.25 μM, or [Gd-153]=0.16 nM. Phases analyzed after one contact. Contact time: 30 min.
The separation factor values given here must been seen as lower limit since the extraction of Pu(IV) is near zero.

[7] = Extraction by TODGA from HNO3 in the absence or presence of 1 mM 343HOPO
Procedure: Aqueous phase: 0 or 1 mM 343HOPO in HNO3. Organic phase: 0.1 M TODGA in kerosene. T=25° C. O/A=1, one contact. Points with arrows are lower limits.
Aqueous phase: 1 mM 343HOPO in 3 M HNO3. Organic phase: TODGA in kerosene. O/A=1. One contact. T=25° C.
For Example 20—Example 24, pH measurements were performed with a glass electrode (Metrohm-Micro Combi-response to [H+]) calibrated at 25.0° C. using three NIST standards. Extraction samples were analyzed by liquid scintillation counting (LSC). The distribution coefficient, D(M), of a given metal, M, is defined in Eq. 1, where [M]organic and [M]aqueous are the respective total concentrations of M in the organic and aqueous layers, after extraction. Both concentrations are proportional to the volumetric activity (in Bq/L) determined by LSC. The separation factor, SFM1/M2, between two metals, M1 and M2, and extraction yield were calculated according to Eq. 2 and Eq. 3, respectively.
In a typical experiment, the solvent (extractant diluted in kerosene) was pre-conditioned by shaking one volume of solvent with three volumes of aqueous phase (typically HNO3) at room temperature for 1 h, thrice. For radioisotope extractions, at least 400 μL aqueous phase (typically containing HNO3, a chelator and a radioisotope) and solvent were placed in air-tight screw-capped plastic tubes, triply-contained, and shaken in a thermoshaker at 300 rpm, 25° C., for at least 30 min. Samples were then centrifuged for 5 min at 3000 rpm and phases separated before analysis. LSC analyses were performed on a Packard Tri-Carb B4430 instrument (Perkin Elmer) after mixing sample aliquots or sample dilution aliquots (10 to 200 μL) with 10 mL of scintillation cocktail (UltimaGold LLT). Samples were counted for at least 6 min and results were background subtracted. The analytical samples contained between 0 and 800,000 CPM. Mixtures of ^249Bk and ^249Cf were analyzed using α/β discrimination and energy windows were set to 0-50 keV for low-energy β particles of ^249Bk and 50-1000 keV for α particles of ^249Cf. ^243Am and ^225Ac samples were counted at secular equilibrium.

[8] = Th^4+; 25° C.; cited from earlier work
[9] = Cd^2+; 25° C.; cited from earlier work
[10] = La^3+; 25° C.; cited from earlier work
[11] = Am^3+; 25° C.; cited from earlier work

O=C(NCCCN(CCCCN(CCCNC(=O)c1cccc(=O)n1O)C(=O)c1cccc(=O)n1O)C(=O)c1cccc(=O)n1O)c1cccc(=O)n1O [3,4,3-LI(1,2-HOPO)]
log β[AcL]- ([1]; Ac^3+ complex, expected from ionic radius (1.22 Å) and constants of other ions): about 12
log βML ([1]; Ac^3+, estimate based on ionic radius): 10-14
solubility [2]: 1000 mM (≈ 751 mg/mL)
acidity range over which the ligand stays bound [3]: from pH 8 to strongly acidic solutions (at least 6 M HCl)
acidity range over which the ligand stays bound [4]: from pH 6 to 10 M HCl (at least)
acidity range over which the ligand stays bound [5]: from pH 8 to 1 M HCl
% Extraction ([6]; HDEHP 0.05 M): 0.02%
SF Am^3+/Pu^4+ ([6]; HDEHP 0.05 M): 14
% Extraction ([6]; HDEHP 0.10 M): 0.02%
SF Am^3+/Pu^4+ ([6]; HDEHP 0.10 M): 84
% Extraction ([6]; HDEHP 0.25 M): 0.05%
SF Am^3+/Pu^4+ ([6]; HDEHP 0.25 M): 236
% Extraction ([6]; HDEHP 0.50 M): 0.03%
SF Am^3+/Pu^4+ ([6]; HDEHP 0.50 M): 1450
% Extraction ([6]; HDEHP 1.00 M): 0.16%
SF Am^3+/Pu^4+ ([6]; HDEHP 1.00 M): 624
% Extraction ([6]; HDEHP 2.00 M): 0.21%
SF Am^3+/Pu^4+ ([6]; HDEHP 2.00 M): 649
SF, isolation of Bk from adjacent actinides and fission products ([7]; one-step separation method, summary statement): > 3×10^6
SFCf/Bk ([7]; regardless of the TODGA and HNO3 concentrations): > 1,000,000
Bk extracted ([7]; throughout the acidity range, 1 mM 343HOPO, 0.1 M TODGA): less than 1%
log βML [8]: 40.1 ± 0.5
log βML [9]: 16.1 ± 0.3
log βML [10]: 16.4 ± 0.4
log βML [11]: 20.4 ± 0.2
